Columns and labels:
Format in all cases: biochemical
Zap70 = molecular target: T1, Zap70 (Homo sapiens, UniProt P43403); experiment: AlphaScreen kinase assay, Zap70; conditions: read-out: IC50, activity toward kinase Zap70
T1 construct: P1868.pFastBac1 ZAP70 D327-G606 HIS, WT; His7 (HHHHHHH) (C); made in house
T1 sequence (P43403 with tags, fused parts or gaps): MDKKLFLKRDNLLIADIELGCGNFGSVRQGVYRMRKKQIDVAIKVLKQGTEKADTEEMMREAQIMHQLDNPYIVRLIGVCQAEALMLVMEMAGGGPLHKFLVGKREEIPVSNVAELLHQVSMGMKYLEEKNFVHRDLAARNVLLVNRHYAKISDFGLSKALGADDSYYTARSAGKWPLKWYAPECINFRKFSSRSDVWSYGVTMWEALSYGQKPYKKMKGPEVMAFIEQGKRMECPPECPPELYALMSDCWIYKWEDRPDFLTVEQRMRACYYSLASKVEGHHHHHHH
Summary of the method: (§1)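 Here, phosphorylation of a biotin-tagged peptide was sensed by proximity of streptavidin donor and antibody-bearing acceptor beads. Test compounds covered 8 concentrations by 1:3 serial dilution of 20 mM DMSO stocks.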

Abl = molecular target: T2, Abl (Homo sapiens, UniProt P00519); experiment: AlphaScreen kinase assay, Abl; conditions: read-out: activity toward kinase Abl, IC50
T2 construct: P1121. pET-SPEC BI-PTP Abl G227-V515-X; His6 (N); made in house; host or cells: E. coli (PTP1B co-expressed)
T2 sequence (P00519 with tags, fused parts or gaps): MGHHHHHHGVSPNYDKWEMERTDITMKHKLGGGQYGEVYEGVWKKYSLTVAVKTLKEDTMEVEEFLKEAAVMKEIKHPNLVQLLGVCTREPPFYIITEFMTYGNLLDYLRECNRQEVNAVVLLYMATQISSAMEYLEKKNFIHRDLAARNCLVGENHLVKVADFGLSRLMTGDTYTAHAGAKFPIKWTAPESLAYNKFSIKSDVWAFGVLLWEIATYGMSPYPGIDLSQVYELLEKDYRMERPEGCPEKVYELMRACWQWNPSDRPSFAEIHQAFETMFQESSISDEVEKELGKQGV
Text: AlphaScreen assay was used to screen additional kinases. The assay is similarly dependent on the phosphorylation of a peptide substrate. In this assay, an antibody that recognizes phosphorylated substrate is bound to an acceptor bead. The peptide substrate is attached to biotin, which binds to a donor head that contains streptavidin. Thus phosphorylated substrate is bound by antibody and streptavidin, bringing the donor and acceptor heads into close proximity when kinase is not inhibited. The donor produces singlet oxygen which results in emission from the acceptor when they are in close proximity. Conversely, when kinase is inhibited, the donor and acceptor beads are not associated and the emission from the acceptor is reduced.
AlphaScreen assays were done using compounds dissolved in DMSO to a concentration of 20 mM. The compounds were diluted accordingly to the desired final concentrations in each sample well, using 1:3 serial dilution for a total of 8 concentration points.

Btk = molecular target: T3, Btk (Homo sapiens, UniProt Q06187); experiment: Z'-Lyte FRET kinase assay (Invitrogen), Btk; conditions: read-out: IC50, activity toward kinase Btk
T3 construct: purchased Invitrogen (assay run by Invitrogen)

B-Raf V600E = molecular target: T4, B-Raf V600E (Homo sapiens, UniProt P15056, V600E); experiment: AlphaScreen kinase assay, B-Raf V600E; conditions: read-out: IC50, activity toward kinase B-Raf V600E
T4 construct: P4254. pFastBacBD-CDC37 BRAF D437-K722-X, V600E; His6 with pFastBac HT leader (TEV site) (N); made in house; host or cells: Sf9 (baculovirus; chaperone CDC37 co-expressed)
T4 sequence (P15056 with tags, fused parts or gaps V600E): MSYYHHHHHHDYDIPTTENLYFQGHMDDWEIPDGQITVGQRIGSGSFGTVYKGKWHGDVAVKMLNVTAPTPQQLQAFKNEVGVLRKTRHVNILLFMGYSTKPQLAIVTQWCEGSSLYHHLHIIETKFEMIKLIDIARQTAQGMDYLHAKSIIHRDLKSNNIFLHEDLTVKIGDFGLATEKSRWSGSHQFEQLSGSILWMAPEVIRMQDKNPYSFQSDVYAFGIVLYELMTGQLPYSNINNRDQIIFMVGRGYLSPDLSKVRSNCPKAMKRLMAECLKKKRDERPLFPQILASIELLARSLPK

Ret = molecular target: T5, Ret (Homo sapiens, UniProt P07949); experiment: AlphaScreen kinase assay, Ret; conditions: read-out: IC50, activity toward kinase Ret
T5 construct: P1378.pET-SF BI-PTP RET H661-R1012 HIS; made in house
T5 sequence (P07949 with tags, fused parts or gaps): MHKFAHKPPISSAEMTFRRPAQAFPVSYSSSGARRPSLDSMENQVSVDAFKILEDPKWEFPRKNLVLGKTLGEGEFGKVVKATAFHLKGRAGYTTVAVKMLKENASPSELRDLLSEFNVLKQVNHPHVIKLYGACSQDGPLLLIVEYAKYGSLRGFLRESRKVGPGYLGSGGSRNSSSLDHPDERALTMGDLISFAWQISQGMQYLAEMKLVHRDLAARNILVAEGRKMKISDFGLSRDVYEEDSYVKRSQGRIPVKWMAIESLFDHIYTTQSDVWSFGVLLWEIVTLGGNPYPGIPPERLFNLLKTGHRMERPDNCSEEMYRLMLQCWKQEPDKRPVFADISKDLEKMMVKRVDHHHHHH

Jnk3 = molecular target: T6, Jnk3 (Homo sapiens, UniProt P53779); experiment: AlphaScreen kinase assay, Jnk3; conditions: read-out: IC50, activity toward kinase Jnk3
T6 construct: purchased Upstate Biotechnology
T6 sequence (P53779 whole entry): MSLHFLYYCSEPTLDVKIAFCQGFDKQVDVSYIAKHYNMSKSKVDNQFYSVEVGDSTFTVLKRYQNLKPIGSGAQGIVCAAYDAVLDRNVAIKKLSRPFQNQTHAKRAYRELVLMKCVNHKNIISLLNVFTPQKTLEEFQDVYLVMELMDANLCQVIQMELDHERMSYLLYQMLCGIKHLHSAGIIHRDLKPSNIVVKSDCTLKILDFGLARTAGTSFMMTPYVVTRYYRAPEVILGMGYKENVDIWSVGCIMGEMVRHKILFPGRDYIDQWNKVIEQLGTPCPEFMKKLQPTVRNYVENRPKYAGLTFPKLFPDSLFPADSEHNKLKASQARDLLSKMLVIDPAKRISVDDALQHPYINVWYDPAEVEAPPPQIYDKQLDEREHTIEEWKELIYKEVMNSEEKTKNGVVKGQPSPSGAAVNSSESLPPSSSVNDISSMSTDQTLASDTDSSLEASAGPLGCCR

Yes = molecular target: T7, Yes (Homo sapiens, UniProt P07947); experiment: Z'-Lyte FRET kinase assay (Invitrogen), Yes; conditions: read-out: IC50, activity toward kinase Yes
T7 construct: purchased Invitrogen (Carlsbad, Calif.), screening service
Summary of the method: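 Serially diluted compound (1% DMSO final) is mixed with kinase plus 2 μM peptide substrate in pH 7.5 HEPES buffer, then ATP is added to 10 μM. After 1 h at room temperature, site-specific protease is added for another hour, reactions are stopped and fluorescence ratio measured.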

Kit = molecular target: T8, Kit (Homo sapiens, UniProt P10721); experiment: AlphaScreen kinase assay, Kit; conditions: read-out: IC50, activity toward kinase Kit
T8 construct: P1332.N6 BI PTP KIT M552-K948-X COD; His6 (N); made in house; host or cells: E. coli (PTP1B co-expressed)
T8 sequence (P10721 with tags, fused parts or gaps): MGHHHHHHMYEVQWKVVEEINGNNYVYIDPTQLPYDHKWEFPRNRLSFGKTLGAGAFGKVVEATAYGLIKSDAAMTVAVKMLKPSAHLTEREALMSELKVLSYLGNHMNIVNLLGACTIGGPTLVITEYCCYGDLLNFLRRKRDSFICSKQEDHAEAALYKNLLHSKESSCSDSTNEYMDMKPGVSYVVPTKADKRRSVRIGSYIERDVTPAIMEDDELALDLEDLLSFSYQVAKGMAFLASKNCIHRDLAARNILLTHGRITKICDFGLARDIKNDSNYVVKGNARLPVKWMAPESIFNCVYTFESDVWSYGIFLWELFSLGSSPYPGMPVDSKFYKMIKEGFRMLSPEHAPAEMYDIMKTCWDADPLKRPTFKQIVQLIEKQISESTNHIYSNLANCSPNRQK

Src = molecular target: T9, Src (Homo sapiens, UniProt P12931); experiment: AlphaScreen kinase assay, Src; conditions: read-out: IC50, activity toward kinase Src
T9 construct: P1144. pET-N6 BI-PTP SRC V86-L536-X; made in house
T9 sequence (P12931 with tags, fused parts or gaps): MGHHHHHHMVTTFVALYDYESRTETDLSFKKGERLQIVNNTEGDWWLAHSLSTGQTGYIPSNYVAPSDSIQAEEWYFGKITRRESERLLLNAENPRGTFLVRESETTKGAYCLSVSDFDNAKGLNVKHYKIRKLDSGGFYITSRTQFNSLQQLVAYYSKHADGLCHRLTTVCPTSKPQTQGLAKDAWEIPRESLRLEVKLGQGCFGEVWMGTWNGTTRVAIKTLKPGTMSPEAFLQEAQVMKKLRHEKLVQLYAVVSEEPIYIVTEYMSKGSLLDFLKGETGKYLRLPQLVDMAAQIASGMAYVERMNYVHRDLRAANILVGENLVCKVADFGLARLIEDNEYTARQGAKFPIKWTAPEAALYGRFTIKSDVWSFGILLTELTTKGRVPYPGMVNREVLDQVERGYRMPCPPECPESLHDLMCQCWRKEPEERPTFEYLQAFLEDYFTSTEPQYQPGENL

Fms = molecular target: T10, Fms (Homo sapiens, UniProt P07333); experiment: AlphaScreen kinase assay, Fms; conditions: read-out: IC50, activity toward kinase Fms
T10 construct: purchased Upstate Biotechnology

FGFR1 = molecular target: T11, FGFR1 (Homo sapiens, UniProt P11362, C488A/C584S); experiment: AlphaScreen kinase assay, FGFR1; conditions: read-out: IC50, activity toward kinase FGFR
T11 construct: P1351.pET N6 BI-PTP FGFR A458-E765-X C488A, C584S; made in house; host or cells: E. coli (PTP1B co-expressed)
T11 sequence (P11362 458-765 C488A/C584S): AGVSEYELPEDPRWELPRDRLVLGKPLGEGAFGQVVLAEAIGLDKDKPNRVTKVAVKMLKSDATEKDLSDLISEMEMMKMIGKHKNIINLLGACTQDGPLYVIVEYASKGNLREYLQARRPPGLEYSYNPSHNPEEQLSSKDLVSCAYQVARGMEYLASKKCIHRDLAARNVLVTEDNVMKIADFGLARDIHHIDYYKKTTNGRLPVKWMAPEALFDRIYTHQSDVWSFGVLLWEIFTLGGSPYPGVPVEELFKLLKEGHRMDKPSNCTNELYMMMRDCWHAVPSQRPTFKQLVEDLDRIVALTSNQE

Flt1 = molecular target: T12, Flt1 (Homo sapiens, UniProt P17948); experiment: AlphaScreen kinase assay, Flt1; conditions: read-out: IC50, activity toward kinase Flt1
T12 construct: P1826.pETN6 BI-PTP FLT1 M799-D1165-X WT; His6 (N); made in house; host or cells: E. coli (PTP1B co-expressed)
T12 sequence (P17948 with tags, fused parts or gaps): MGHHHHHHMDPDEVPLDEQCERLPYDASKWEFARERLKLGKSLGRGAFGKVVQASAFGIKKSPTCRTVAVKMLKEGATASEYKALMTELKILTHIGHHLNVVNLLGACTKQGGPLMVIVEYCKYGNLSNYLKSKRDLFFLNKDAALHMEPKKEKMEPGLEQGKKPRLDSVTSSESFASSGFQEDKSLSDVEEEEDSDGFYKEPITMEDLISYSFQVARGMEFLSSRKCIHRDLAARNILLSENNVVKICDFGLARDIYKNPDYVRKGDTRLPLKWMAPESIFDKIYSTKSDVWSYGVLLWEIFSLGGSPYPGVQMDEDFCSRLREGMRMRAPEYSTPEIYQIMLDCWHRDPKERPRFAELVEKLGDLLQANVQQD

Jnk1 = molecular target: T13, Jnk1 (Homo sapiens, UniProt P45983); experiment: AlphaScreen kinase assay, Jnk1; conditions: read-out: IC50, activity toward kinase Jnk1
T13 construct: purchased Upstate Biotechnology

Pyk2 = molecular target: T14, Pyk2 (Homo sapiens, UniProt Q14289); experiment: AlphaScreen kinase assay, Pyk2; conditions: read-out: IC50, activity toward kinase Pyk2
T14 construct: purchased Upstate Biotechnology
T14 sequence (Q14289 whole entry): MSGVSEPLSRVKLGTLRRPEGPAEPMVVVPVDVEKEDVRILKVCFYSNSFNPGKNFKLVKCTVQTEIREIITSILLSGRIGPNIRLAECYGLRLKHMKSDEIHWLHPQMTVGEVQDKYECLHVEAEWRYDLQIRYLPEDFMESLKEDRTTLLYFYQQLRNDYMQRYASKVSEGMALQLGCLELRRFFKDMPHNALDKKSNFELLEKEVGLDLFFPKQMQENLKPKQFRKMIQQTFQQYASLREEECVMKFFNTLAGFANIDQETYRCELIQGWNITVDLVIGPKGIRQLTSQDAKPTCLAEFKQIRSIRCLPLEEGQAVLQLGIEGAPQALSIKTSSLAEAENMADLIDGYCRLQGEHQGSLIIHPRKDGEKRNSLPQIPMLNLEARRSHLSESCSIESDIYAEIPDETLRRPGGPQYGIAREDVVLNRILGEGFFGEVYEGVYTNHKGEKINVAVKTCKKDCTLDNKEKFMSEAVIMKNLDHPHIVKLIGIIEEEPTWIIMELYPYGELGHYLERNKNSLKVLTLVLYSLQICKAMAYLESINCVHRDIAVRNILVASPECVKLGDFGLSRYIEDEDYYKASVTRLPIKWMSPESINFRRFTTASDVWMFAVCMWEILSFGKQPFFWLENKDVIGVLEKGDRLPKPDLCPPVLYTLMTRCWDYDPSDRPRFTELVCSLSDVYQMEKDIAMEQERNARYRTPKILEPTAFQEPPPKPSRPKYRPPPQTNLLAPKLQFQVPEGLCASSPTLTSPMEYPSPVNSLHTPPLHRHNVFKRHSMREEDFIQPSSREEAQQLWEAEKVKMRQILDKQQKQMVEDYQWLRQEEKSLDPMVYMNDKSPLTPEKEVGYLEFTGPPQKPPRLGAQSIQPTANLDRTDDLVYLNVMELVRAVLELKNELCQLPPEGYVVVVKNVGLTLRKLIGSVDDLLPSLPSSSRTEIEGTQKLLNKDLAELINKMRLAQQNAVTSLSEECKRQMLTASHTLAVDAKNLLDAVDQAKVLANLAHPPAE

Fak = molecular target: T15, Fak (Homo sapiens, UniProt Q05397); experiment: AlphaScreen kinase assay, Fak; conditions: read-out: IC50, activity toward kinase Fak
T15 construct: P1358.pFastBacHtb FAK S411-Q686-X; His6 with pFastBacHTb leader (TEV site) (N); made in house; host or cells: Sf9 (baculovirus)

Kdr = molecular target: T16, Kdr (Homo sapiens, UniProt P35968); experiment: Z'-Lyte FRET kinase assay (Invitrogen), Kdr; conditions: read-out: IC50, activity toward kinase Kdr
T16 construct: purchased Invitrogen (assay run by Invitrogen)
T16 sequence (P35968 20-1356): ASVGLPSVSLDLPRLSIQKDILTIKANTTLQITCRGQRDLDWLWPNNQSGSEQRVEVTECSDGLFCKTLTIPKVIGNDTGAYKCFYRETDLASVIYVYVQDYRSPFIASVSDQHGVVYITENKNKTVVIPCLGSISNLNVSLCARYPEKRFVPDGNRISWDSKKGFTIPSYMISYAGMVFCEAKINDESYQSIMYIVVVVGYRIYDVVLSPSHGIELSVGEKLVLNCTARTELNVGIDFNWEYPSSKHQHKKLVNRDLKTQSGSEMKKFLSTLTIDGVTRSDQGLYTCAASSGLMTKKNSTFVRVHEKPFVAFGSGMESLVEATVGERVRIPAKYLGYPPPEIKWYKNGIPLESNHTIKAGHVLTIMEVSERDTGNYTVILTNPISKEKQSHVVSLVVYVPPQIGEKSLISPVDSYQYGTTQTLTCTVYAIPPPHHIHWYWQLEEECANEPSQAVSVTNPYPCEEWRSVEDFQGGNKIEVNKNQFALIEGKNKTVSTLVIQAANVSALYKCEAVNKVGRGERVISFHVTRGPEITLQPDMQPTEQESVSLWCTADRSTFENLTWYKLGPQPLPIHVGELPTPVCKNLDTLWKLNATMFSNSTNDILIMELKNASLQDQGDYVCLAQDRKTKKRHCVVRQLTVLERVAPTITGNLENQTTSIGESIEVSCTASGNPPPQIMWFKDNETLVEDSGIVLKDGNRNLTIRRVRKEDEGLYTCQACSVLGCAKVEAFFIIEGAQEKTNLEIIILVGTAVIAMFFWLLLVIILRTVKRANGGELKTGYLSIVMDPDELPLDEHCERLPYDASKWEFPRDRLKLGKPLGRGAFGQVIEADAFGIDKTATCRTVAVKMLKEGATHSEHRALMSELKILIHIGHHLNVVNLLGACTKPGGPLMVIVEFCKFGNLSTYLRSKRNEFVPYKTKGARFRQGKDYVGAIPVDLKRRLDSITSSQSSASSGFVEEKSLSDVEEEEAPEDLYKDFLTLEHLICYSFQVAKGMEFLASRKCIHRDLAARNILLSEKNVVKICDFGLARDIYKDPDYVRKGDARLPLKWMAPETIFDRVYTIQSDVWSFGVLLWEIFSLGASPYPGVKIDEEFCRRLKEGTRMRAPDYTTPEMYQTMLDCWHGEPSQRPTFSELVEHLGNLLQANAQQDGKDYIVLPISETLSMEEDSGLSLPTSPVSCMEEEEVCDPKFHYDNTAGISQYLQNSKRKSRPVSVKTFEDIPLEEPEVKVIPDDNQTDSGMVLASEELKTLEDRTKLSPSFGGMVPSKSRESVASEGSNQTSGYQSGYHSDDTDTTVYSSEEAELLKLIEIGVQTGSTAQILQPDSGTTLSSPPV

c-Raf-1 = molecular target: T17, c-Raf-1 (Homo sapiens, UniProt P04049); experiment: AlphaScreen kinase assay, c-Raf-1; conditions: read-out: IC50, activity toward kinase c-Raf-1
T17 construct: purchased Upstate Biotechnology

B-Raf = molecular target: T18, B-Raf (Homo sapiens, UniProt P15056); experiment: AlphaScreen kinase assay, B-Raf; conditions: read-out: IC50, activity toward kinase B-Raf
T18 construct: purchased Upstate Biotechnology
T18 sequence (P15056 whole entry): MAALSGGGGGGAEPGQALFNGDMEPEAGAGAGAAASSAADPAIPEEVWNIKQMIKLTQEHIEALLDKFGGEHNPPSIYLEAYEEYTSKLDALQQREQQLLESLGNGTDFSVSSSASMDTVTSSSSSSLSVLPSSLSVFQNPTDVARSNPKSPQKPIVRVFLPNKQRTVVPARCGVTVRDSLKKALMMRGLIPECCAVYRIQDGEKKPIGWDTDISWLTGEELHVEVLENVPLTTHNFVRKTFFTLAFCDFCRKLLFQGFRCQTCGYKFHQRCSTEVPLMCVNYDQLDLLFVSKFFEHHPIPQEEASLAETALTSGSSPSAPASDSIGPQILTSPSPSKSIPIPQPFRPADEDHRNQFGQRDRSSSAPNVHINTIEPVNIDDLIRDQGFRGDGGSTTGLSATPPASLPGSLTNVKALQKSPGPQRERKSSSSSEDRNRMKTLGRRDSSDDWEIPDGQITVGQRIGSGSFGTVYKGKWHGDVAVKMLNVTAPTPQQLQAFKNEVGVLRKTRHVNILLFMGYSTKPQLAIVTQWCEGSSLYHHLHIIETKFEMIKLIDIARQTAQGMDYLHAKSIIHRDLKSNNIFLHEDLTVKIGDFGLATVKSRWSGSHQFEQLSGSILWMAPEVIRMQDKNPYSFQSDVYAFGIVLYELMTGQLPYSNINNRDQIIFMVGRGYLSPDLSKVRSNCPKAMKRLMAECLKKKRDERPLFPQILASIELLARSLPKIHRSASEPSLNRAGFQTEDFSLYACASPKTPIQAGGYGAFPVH

Jnk2 = molecular target: T19, Jnk2 (Homo sapiens, UniProt P45984); experiment: AlphaScreen kinase assay, Jnk2; conditions: read-out: IC50, activity toward kinase Jnk2
T19 construct: purchased Roche Protein Expression Group (Indianapolis, IN)
Summary of the method: as §1

Measured: IC50

COc1ccc(F)c(C(=O)c2c[nH]c3ncc(-c4cccc(/C=C/C(=O)O)c4)cc23)c1 [Compound P-0047]
≤ 10 µM: Zap70 | Abl | Btk | B-Raf V600E | Ret | Jnk3 | Yes

Cc1ccccc1C(=O)c1c[nH]c2ncc(-c3ccsc3)cc12 [Compound P-0244]
≤ 10 µM: Kit | Src | Abl | Fms | FGFR1 | B-Raf V600E | Flt1 | Ret | Jnk3 | Jnk1

COc1cccc(Cc2c[nH]c3nccc(Br)c23)c1 [Compound P-0501]
≤ 10 µM: Kit | Src | Pyk2 | Abl | Fms | FGFR1 | Fak | Ret

c1csc(Sc2c[nH]c3ncccc23)c1 [Compound P-0529]
≤ 10 µM: Pyk2 | Abl

CCOc1cccc(Cc2c[nH]c3ncc(-c4ccsc4)cc23)c1 [Compound P-0562]
≤ 10 µM: Kit | Kdr | Src | Pyk2 | Abl | FGFR1 | Jnk3

O=C(c1cc(O)ccc1F)c1c[nH]c2ncc(-c3ccsc3)cc12 [Compound P-0604]
≤ 10 µM: Kit | Abl | c-Raf-1 | B-Raf V600E | Ret | B-Raf | Jnk3

Cc1ccccc1C(=O)c1c[nH]c2ncc(-c3cccnc3)cc12 [Compound P-0623]
≤ 10 µM: Kit | Kdr | Src | Jnk2 | Abl | FGFR1 | B-Raf V600E | Ret

Cc1ccc(F)cc1C(=O)c1c[nH]c2ncc(-c3ccsc3)cc12 [Compound P-0671]
≤ 10 µM: Kit | Abl | FGFR1 | B-Raf V600E | Ret | Jnk3

Cc1ccc(F)cc1C(=O)c1c[nH]c2ncc(-c3cccnc3)cc12 [Compound P-0693]
≤ 10 µM: Kit | Abl | FGFR1 | B-Raf V600E | Ret | B-Raf

O=C(c1cc(O)ccc1F)c1c[nH]c2nccc(Cl)c12 [Compound P-0794]
≤ 10 µM: Kit | Abl | c-Raf-1 | B-Raf V600E | Ret | B-Raf

Cc1ccccc1C(=O)c1c[nH]c2ncc(-c3ccc(C(N)=O)cc3)cc12 [Compound P-1011]
≤ 10 µM: Abl | Ret | Jnk3

Cc1cc(C(=O)c2c[nH]c3ncc(-c4cccc(N)c4)cc23)n(C)n1 [Compound P-1115]
≤ 10 µM: Abl | Ret

Cc1ccc(S(=O)(=O)NCc2c[nH]c3ncc(-c4ccsc4)cc23)cc1 [Compound P-1127]
≤ 10 µM: Abl

From US8415469B2, “Compounds and methods for kinase modulation, and indications therefor” (Plexxikon Inc., priority 2005, dated 2013)
